In US8247211B2, “Glycopeptide antibiotics” (American Cyanamid Company, priority 2001, dated 2012):
In brackets after ≈: the same amount, converted by molar mass.

How the values were obtained:
Test in all cases: In vitro antibacterial evaluation: minimum inhibitory concentration (MIC), broth dilution method
Assay type in all cases: cell-based
Enterococcus sp. = settings: 18 hours at 35° C.
In short: (§1)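 Following NCCLS approved standard M7-A2, compounds are serially diluted from 64 to 0.06 μg/mL in Muller-Hinton II […] and inoculated at 5×10^5 CFU/mL; the MIC is the minimum concentration at which growth is inhibited.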

Escherichia coli = settings: 18 hours at 35° C.
In short: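 Inoculum: 5×10^5 CFU/mL. Range: 64-0.06 μg/mL. Medium: Muller-Hinton II […]; NCCLS M7-A2 broth dilution. Endpoint: lowest concentration inhibiting growth. Strains include methicillin-, penicillin- and/or vancomycin-resistant clinical isolates.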

Staphylococcus sp. = tested on: Staphylococcus sp.
In short: as §1

Streptococcus sp. = settings: 18 hours at 35° C.
In short: as §1

[1] = broth dilution, inoculum 5×10^5 CFU/mL

With CC(c1ccccc1)C1NC(=O)CNC(=O)C(CO)NC(=O)C(C(O)C2CNC(=N)N2C2OC(CO)C(O)C(O)C2O)NC(=O)C(C(O)C2CNC(=N)N2)NC(=O)C(Cc2ccc(OC3OC(CO)C(OC4OC5COC6(CCC(C(C)(C)C)CC6)OC5C(O)C4O)C(O)C3O)cc2)NC1=O (stereo not drawn) [Example 208, Cyclo[glycyl-β-methylphenylalanyl-O-[4-O-[4,6-O-(4-tert, butylcyclohexylidene)hexopyranosyl]hexopyranosyl]tyrosyl-3-(2-iminoimidazolidin-4-yl)seryl-3-(3-hexopyranosyl-2-iminoimidazolidin-4-yl)serylseryl]] the “MIC Enterococcus avium (GC 4558)” value (Enterococcus sp.; Enterococcus avium (GC 4558)) was 4 µg/mL (≈ 2.79 µM), the “MIC Enterococcus faecalis (ATCC 29212)” value (Enterococcus sp.; Enterococcus faecalis (ATCC 29212)) was 8 µg/mL (≈ 5.59 µM) and the “MIC Enterococcus faecalis (GC 2242)” value (Enterococcus sp.; Enterococcus faecalis (GC 2242)) was 8 µg/mL (≈ 5.59 µM). For the same molecule, the “MIC Enterococcus faecalis (GC 2691)” value (Enterococcus sp.; Enterococcus faecalis (GC 2691)) was 8 µg/mL (≈ 5.59 µM), the “MIC Enterococcus faecalis (GC 3059)” value (Enterococcus sp.; Enterococcus faecalis (GC 3059)) was 8 µg/mL (≈ 5.59 µM) and the “MIC Enterococcus faecalis (GC 4552)” value (Enterococcus sp.; Enterococcus faecalis (GC 4552)) was 8 µg/mL (≈ 5.59 µM). For the same molecule, the “MIC Enterococcus faecalis (GC 4553)” value (Enterococcus sp.; Enterococcus faecalis (GC 4553)) was 8 µg/mL (≈ 5.59 µM), the “MIC Enterococcus faecalis (GC 4554)” value (Enterococcus sp.; Enterococcus faecalis (GC 4554)) was 8 µg/mL (≈ 5.59 µM) and the “MIC Enterococcus faecalis (GC 6189)” value (Enterococcus sp.; Enterococcus faecalis (GC 6189)) was 8 µg/mL (≈ 5.59 µM). For the same molecule, the “MIC Enterococcus faecium (GC 2243)” value (Enterococcus sp.; Enterococcus faecium (GC 2243)) was 8 µg/mL (≈ 5.59 µM), the “MIC Enterococcus faecium (GC 4556)” value (Enterococcus sp.; Enterococcus faecium (GC 4556)) was 8 µg/mL (≈ 5.59 µM) and the “MIC Enterococcus faecium (GC 4557)” value (Enterococcus sp.; Enterococcus faecium (GC 4557)) was 8 µg/mL (≈ 5.59 µM). The “MIC Enterococcus avium (GC 4558)” value (Enterococcus sp.; [1]) was 4 µg/mL (≈ 2.79 µM), the “MIC Enterococcus faecalis (ATCC 29212)” value (Enterococcus sp.; [1]) was 8 µg/mL (≈ 5.59 µM) and the “MIC Enterococcus faecalis (GC 2242)” value (Enterococcus sp.; [1]) was 8 µg/mL (≈ 5.59 µM). For the same molecule, the “MIC Enterococcus faecalis (GC 2691)” value (Enterococcus sp.; [1]) was 8 µg/mL (≈ 5.59 µM), the “MIC Enterococcus faecalis (GC 3059)” value (Enterococcus sp.; [1]) was 8 µg/mL (≈ 5.59 µM) and the “MIC Enterococcus faecalis (GC 4552)” value (Enterococcus sp.; [1]) was 8 µg/mL (≈ 5.59 µM). The “MIC Enterococcus faecalis (GC 4553)” value (Enterococcus sp.; [1]) was 8 µg/mL (≈ 5.59 µM), the “MIC Enterococcus faecalis (GC 4554)” value (Enterococcus sp.; [1]) was 8 µg/mL (≈ 5.59 µM) and the “MIC Enterococcus faecalis (GC 6189)” value (Enterococcus sp.; [1]) was 8 µg/mL (≈ 5.59 µM). The “MIC Enterococcus faecium (GC 2243)” value (Enterococcus sp.; [1]) was 8 µg/mL (≈ 5.59 µM), the “MIC Enterococcus faecium (GC 4556)” value (Enterococcus sp.; [1]) was 8 µg/mL (≈ 5.59 µM) and the “MIC Enterococcus faecium (GC 4557)” value (Enterococcus sp.; [1]) was 8 µg/mL (≈ 5.59 µM). The “MIC Escherichia coli (ATCC 25922)” value (Escherichia coli; Escherichia coli (ATCC 25922)) was 64 µg/mL (≈ 44.7 µM), the “MIC Escherichia coli (GC 4559)” value (Escherichia coli; Escherichia coli (GC 4559)) was >64 µg/mL and the “MIC Escherichia coli (GC 4560)” value (Escherichia coli; Escherichia coli (GC 4560)) was 8 µg/mL (≈ 5.59 µM). For the same molecule, the “MIC Staphylococcus aureus (ATCC 29213)” value (Staphylococcus sp.; strain ATCC 29213) was 4 µg/mL (≈ 2.79 µM), the “MIC Staphylococcus aureus (GC 1131)” value (Staphylococcus sp.; strain GC 1131) was 8 µg/mL (≈ 5.59 µM) and the “MIC Staphylococcus aureus (GC 3051)” value (Staphylococcus sp.; strain GC 3051) was 4 µg/mL (≈ 2.79 µM). For the same molecule, the “MIC Staphylococcus aureus (GC 3053)” value (Staphylococcus sp.; strain GC 3053) was 4 µg/mL (≈ 2.79 µM), the “MIC Staphylococcus aureus (GC 4541)” value (Staphylococcus sp.; strain GC 4541) was 8 µg/mL (≈ 5.59 µM) and the “MIC Staphylococcus aureus (GC 4542)” value (Staphylococcus sp.; strain GC 4542) was 4 µg/mL (≈ 2.79 µM). For the same molecule, the “MIC Staphylococcus aureus-SMITH (GC 4543)” value (Staphylococcus sp.; strain GC 4543) was 4 µg/mL (≈ 2.79 µM), the “MIC Staphylococcus aureus (GC 4544)” value (Staphylococcus sp.; strain GC 4544) was 8 µg/mL (≈ 5.59 µM) and the “MIC Staphylococcus aureus (GC 4545)” value (Staphylococcus sp.; strain GC 4545) was 4 µg/mL (≈ 2.79 µM). For the same molecule, the “MIC Staphylococcus haemolyticus (GC 4546)” value (Staphylococcus sp.; strain GC 4546) was 4 µg/mL (≈ 2.79 µM), the “MIC Coagulase Negative Staphylococcus (GC 4547)” value (Staphylococcus sp.; strain GC 4547) was 4 µg/mL (≈ 2.79 µM) and the “MIC Coagulase Negative Staphylococcus (GC 4548)” value (Staphylococcus sp.; strain GC 4548) was 4 µg/mL (≈ 2.79 µM). For the same molecule, the “MIC Coagulase Negative Staphylococcus (GC 4549)” value (Staphylococcus sp.; strain GC 4549) was 4 µg/mL (≈ 2.79 µM), the “MIC Coagulase Negative Staphylococcus (GC 4551)” value (Staphylococcus sp.; strain GC 4551) was 4 µg/mL (≈ 2.79 µM) and the “MIC Coagulase Negative Staphylococcus (GC 6257)” value (Staphylococcus sp.; strain GC 6257) was 4 µg/mL (≈ 2.79 µM). For the same molecule, the “MIC Streptococcus agalactiae (GC 4564)” value (Streptococcus sp.; Streptococcus agalactiae (GC 4564)) was 0.12 µg/mL (≈ 0.0838 µM), the “MIC Streptococcus pneumoniae (ATCC 6301)” value (Streptococcus sp.; Streptococcus pneumoniae (ATCC 6301)) was <0.06 µg/mL and the “MIC Streptococcus pneumoniae (GC 1894)” value (Streptococcus sp.; Streptococcus pneumoniae (GC 1894)) was <0.06 µg/mL. The “MIC Streptococcus pneumoniae (GC 4565)” value (Streptococcus sp.; Streptococcus pneumoniae (GC 4565)) was <0.06 µg/mL, the “MIC Streptococcus pyogenes (GC 4563)” value (Streptococcus sp.; Streptococcus pyogenes (GC 4563)) was 0.12 µg/mL (≈ 0.0838 µM) and the “MIC Streptococcus agalactiae (GC 4564)” value (Streptococcus sp.; [1]) was 0.12 µg/mL (≈ 0.0838 µM). The “MIC Streptococcus pneumoniae (ATCC 6301)” value (Streptococcus sp.; [1]) was <0.06 µg/mL, the “MIC Streptococcus pneumoniae (GC 1894)” value (Streptococcus sp.; [1]) was <0.06 µg/mL and the “MIC Streptococcus pneumoniae (GC 4565)” value (Streptococcus sp.; [1]) was <0.06 µg/mL. For the same molecule, the “MIC Streptococcus pyogenes (GC 4563)” value (Streptococcus sp.; [1]) was 0.12 µg/mL (≈ 0.0838 µM).
